Data on 1 molecule can be found in patent US6825218B1, “Spherical agglomerates of telithromycin, their preparation process and their use in the preparation of pharmaceutical forms” (Aventis Pharma S. A., priority 1999, dated 2004).

This series in a line: Granulometry: particle size by laser diffraction (HELOS SYMPATEC granulometer). The format is physicochemical. The note with it: after sieving on a 500 μm grid. Here is the method:
The size of the particles is determined by laser diffraction using a HELOS SYMPATEC® model granulometer.

SMILES strings stand for the structures. Some results are limits rather than exact numbers.

Consider `CC[C@H]1OC(=O)[C@H](C)C(=O)[C@H](C)[C@@H](O[C@@H]2O[C@H](C)C[C@H](N(C)C)[C@H]2O)[C@](C)(O)C[C@@H](C)C(=O)[C@H](C)[C@H]2N(CCCCn3cnc(-c4cccnc4)c3)C(=O)O[C@]12C` [spherical agglomerates of telithromycin, 11,12-dideoxy-3-de((2,6-dideoxy-3-C-methyl-3-O-methyl-alpha-L-ribohexopyranosyl)oxy)-6-O-methyl-3-oxo-12,11-(oxycarbonyl((4-(4-(3-pyridinyl)-1H-imidazol-1-yl)butyl)imino))-erythromycin], for which the “diameter of 10% of the particles” value (10% of the particles below this diameter) was less than 77 microns. Moreover, under “50% of the particles below this diameter”, the “diameter of 50% of the particles” value was less than 107 microns. The “diameter of 90% of the particles” value (90% of the particles below this diameter) is on record as less than 166 microns.
